Experimental data from patent publication US8470763B2, “Alpha-amino-N-substituted amides, pharmaceutical composition containing them and uses thereof” (Shanghai Institute of Materia Medica Chinese Academy of …, priority 2007, dated 2013).
Like-named read-outs stand apart in the source and are kept apart here.

Legend:
Format in all cases: cell-based
[1] = system: HPAF-II (Pancreatic Cancer); assay: SRB assay, HPAF-II; conditions: Homo sapiens, 72 h, read-out: IC50 (μM) (mean ± SD)
Method: (§1) Experimental method: The antineoplasmic activities in vitro of the compounds were determined by SRB assay. The detailed procedure was as follows. The cells in the logarithmic growth phase were inoculated on a 96-well microculture plate with a suitable density (100 μl/well), and allowed to attach overnight, followed by addition of the compound at different concentrations to be treated for 72 h. For each concentration, the test was carried out in triplicate wells, and included control wells containing the aqueous medium of normal saline and a blank well containing all medium without cells for zeroing. After cultured overnight, the cells were treated with the compound at different concentrations for 72 h. After the treatment, the culture medium was removed, and the cells were fixed with 10% (wt/vol) trichloroacetic acid (100 μL/well) at 4° C. for 1 h. The cells were then washed with distilled water for 5 times, and died at room temperature, followed by addition of a SRB solution (4 mg/mL, dissolved in 1% glacial acetic acid) at 100 μL/well. The cells were incubated and stained at room temperature for 15 min, then washed with 1% glacial acetic acid for 5 times to remove the uncombined SRB, and died at room temperature. 100 μL of 10 mM Tris solution was added in each well, and the Optical Density (OD) were measured at a wavelength of 560 nm on a VERSMax ELISA Reader (Molecule Devices). The growth inhibition of the compound against tumor cells was calculated according to the following equation: Growth inhibition (%)=(ODcontrol−ODtreated)/ODcontrol×100%.
(§2) IC50 (the concentration of the sample compound that is required for 50% inhibition of cell growth) was calculated by using the Logit method based on the measurement, and each test was repeated for 3 times to calculate the mean value and standard deviation.

[2] = system: SGC-7901 (Gastric Cancer); assay: SRB assay, SGC-7901; conditions: Homo sapiens, 72 h, read-out: IC50 (μM) (mean ± SD)
Method: as §1, §2

HepG2 (Liver Cancer) = assay: SRB assay, HepG2; conditions: Homo sapiens, 72 h, read-out: IC50 (μM) (mean ± SD)
Method: as §1, §2

[3] = system: MDA-MB-435S human breast cancer cells; assay: MTT assay, proliferation of MDA-MB-435S cells; conditions: 72 h
Method: The experiments for evaluating the antineoplasmic activities of the compounds according to the present invention were carried out, and the compounds' antineoplasmic activities in vitro was evaluated by determining the inhibitory activities thereof against the proliferation of MDA-MB-435S human breast cancer cells.
The antineoplasmic activities were determined by using the MTT assay, which is based on the metabolic reduction of 3-(4,5-dimethylthylthiazol-2-yl)-2,5-diphenyl tetrazolium bromide (MTT). The dehydrogenases, which are related to NADP (niacinamide adenine dinucleotide phosphate, coenzyme) and present in mitochondrions of living cells, can reduce the yellow MTT to an insoluble, dark purple formazan. […] After the formazan is dissolved in DMSO, the optical density is determined on an ELISA Reader at the wavelength of 550/690 nm.
(§3) The adhered MDA-MB-4355 cells in logarithmic growth phase, were digested by 0.05% trypsogen, counted and formulated into a cell suspension with a medium. After counted, the suspension was inoculated on a 96-well plate with 3000 cells and 100 μl medium per well. The inoculated 96-well plate was placed overnight in an incubator at 37 with 5% CO2 to allow the cells to adhere to the wall. On the next day, the administration of the drugs started. Before the administration, into some of the control wells, each was added 20 μl of the MTT solution (5 mg/ml) without removing the medium therein. After incubated for 3 h, the absorption at A550/690 was recorded as the initial cell concentration. For the drug wells, each was added into 100 μl of medium containing 2 μl of compound solution. For the control wells which use DMSO as background control, each was also added into 100 μl of medium containing 2 μl of DMSO. In addition, each experiment was carried out with adriamycin as the positive control. Subsequently, the 96-well plate was incubated in an incubator at 37 with 5% CO2 for 72 h. each compound was tested in triplicate wells (6 μl of compound solution was put into a sterilized eppendorf centrifuge tube, then 300 μl of medium was added and mixed well, and the mixture was distributed into 3 wells respectively), and at six concentrations which form a gradient. 3 days (72 h) later, 40 μl of MTT solution (5 mg/ml) was put into each well directly (without sucking off the medium therein), and the plate was incubated in the incubator for 3 h and then taken out. The liquid in each well was sucked off, and then 100 μl of DMSO was put into each well to dissolve the crystal completely with slight shake. The absorbance of the solution in each well was determined at 550/690 nm on an ELISA Reader as the cell density after treated with the compound. The growth inhibition of compound against breast cancer cells MDA-MB-435S was represented by the cell survival rate, and IC50 was determined from the profile of cell survival rate vs compound concentration. The calculating formula was as follows: cell survival rate=[(cells+compound)A550/690/(cells+compound vector DMSO)A550/690]×100%

[4] = system: lung adenocarcinoma cells A549; assay: MTT assay, A549 cells; conditions: Homo sapiens, 72 h
Method: as §3
MDA-MB-435S: human breast cancer cells; HCT116: colon cancer cells; A549: lung adenocarcinoma cells; Hela: uterine cervix cancer cells.
The tests were performed in the same manner as that of experimental example 1, except that for Hela cells, after counted, each well was seeded with 1000 cells and 100 μl of medium on a 96-well plate.

SMILES: CO[C@@H](C(=O)N[C@@H](C)C(=O)NCCOC(=O)C12CC3CC(CC(C3)C1)C2)[C@H](O)[C@@H](O)[C@H](O)/C=C/C(C)(C)C [Compound L538]
- IC50 [1]: 0.65 ± 0.21 µM
- IC50 [2]: 3.92 ± 1.78 µM
- IC50 (HepG2 (Liver Cancer)): 0.45 ± 0.07 µM
- IC50 ([3]; read-out: Cell Survival Rate IC50): 490 nM
- IC50 ([3]; Homo sapiens, note: MDA-MB-435S, read-out: IC50 (MDA-MB-435)): 494 ± 139 nM
- IC50 ([3]; Homo sapiens, read-out: Cell Survival Rate IC50): 430 nM
- IC50 [4]: 133 ± 25 nM
